Assay results from US11919858B2, “Aminonapthoquinone compounds and pharmaceutical composition for blocking ubiquitination-proteasome system in diseases” (Calgent Biotechnology Co., Ltd., priority 2015, dated 2024).
Like-named read-outs stand apart in the source and are kept apart here.

Legend:
[1] = system: HCT116 human colorectal adenocarcinoma
Description: MPT0L056 was used to evaluate for activity against the HCT116 human colorectal adenocarcinoma.
However, MPT0E028 was administered orally (p.o.) in 1.0% CMC and 0.5% Tween 80 and given dose at 25 mg/kg daily to end schedule.
Each animal was euthanized when the tumors reached the predetermined endpoint size of 1,000 mm^3. The time to endpoint (TTE) for each mouse was calculated by the following equation:
[formula] where TTE is expressed in days, endpoint volume is in mm^3, b is the intercept, and m is the slope of the line obtained by linear regression of a log-transformed tumor growth data set. The data set is comprised of the first observation that exceeded the study endpoint volume and the three consecutive observations that immediately preceded the attainment of the endpoint volume. The calculated TTE is usually less than the day on which an animal is euthanized for tumor size. […] An animal classified as having died from treatment-related (TR) causes or non-treatment-related metastasis (NTRm) causes was assigned a TTE value equal to the day of death. An animal classified as having died from non-treatment-related (NTR) causes was excluded from TTE calculations.
Treatment efficacy was determined from tumor growth delay (TGD), which is defined as the increase in the median TTE for a treatment group compared to the control group: TGD=T−C, expressed in days, or as a percentage of the median TTE of the control group:
[formula] where: • T=median TTE for a treatment group, • C=median TTE for control Group 1.
Treatment efficacy was also determined from the tumor volumes of animals remaining in the study on the last day, and from the number of regression responses. The MTV(n) is defined as the median tumor volume on D59 in the number of animals remaining, n, whose tumors have not attained the endpoint volume.
Treatment may cause a partial regression (PR) or a complete regression (CR) of the tumor in an animal. […] An animal with a CR at the termination of a study is additionally classified as a tumor-free survivor (TFS).
Animals were weighed daily for the first five days, then twice weekly until the completion of the study. The mice were examined frequently for overt signs of any adverse, drug-related side effects. Acceptable toxicity for the MTD of cancer drugs is defined as a group mean BW loss of 20% or less during the test, and not more than one TR death among ten animals. A death is classified as TR if there is evidence of treatment side effects from clinical signs and/or necropsy or from unknown causes during dosing period or within 10 days of the last dose. A death is classified as NTR if there is no evidence that the death was related to treatment side effects.
The logrank test was used to determine the statistical significance of the difference between the TTE values of two groups, except any NTR deaths. Statistical and graphical analyses were performed with Prism 3.03 (GraphPad) for Windows. The two-tailed statistical analyses were conducted at P=0.05. Kaplan-Meier plots show the percentage of animals remaining in the study versus time. The Kaplan-Meier plots use the same data set as the log rank test. The tumor growth curves show the group median tumor volume, on a log scale as a function of time.

HCT-116 = test: Growth inhibition assay; assay type: cell-based; settings: Homo sapiens, HCT-116; read-out: HCT-116 GI50 (μM) Mean ± S.E.
Description: (§1) Cells were seeded in 96-well plastic plates and exposed to MPT0L056 for 48 hours. Cell viability was assessed using the 3-(4,5-dimethylthiazol-2-yl)-2,5-diphenyltetrazolium bromide assay. Growth inhibition was expressed as the percentage of surviving cells in drug-treated versus DMSO-treated control cells.
(§2) The compounds of the invention were subjected to growth inhibition assay.

HL-60 = test: Growth inhibition assay; assay type: cell-based; settings: HL-60; for IC50: Homo sapiens, read-out: HL-60 IC50 (μM) Mean ± S.E.
Description: as §1, §2

Hep 3B = test: Growth inhibition assay; assay type: cell-based; settings: Homo sapiens, Hep3B; read-out: Hep3B GI50 (μM) Mean ± S.E.
Description: as §1, §2

MDA-MB-231 = test: Growth inhibition assay; assay type: cell-based; settings: Homo sapiens, MDA-MB-231; read-out: MDA-MB-231 GI50 (μM) Mean ± S.E.
Description: as §1, §2

[2] = Group 1 vs 2: MPT0E028 25 mg/kg
[3] = Group 2: MPT0E028 25 mg/kg po qd to endpoint

Compound | GI50 (HCT-116) | IC50 (HL-60) | GI50 (Hep 3B) | GI50 (MDA-MB-231) | also measured
O=C(/C=C/c1ccc2c(c1)CCN2S(=O)(=O)c1ccccc1)NO [MPT0E028, reference compound] |  |  |  |  | Hazard Ratio [1, 2]: 3.677; Median survival [1, 2]: 40.5; Median survival Ratio [1, 2]: 0.5605; Hazard Ratio ([1]; Group 1 vs 7: 100/25 mg/kg): 1.43; Median survival ([1]; Group 1 vs 7: 100/25 mg/kg): 33.95; Median survival Ratio ([1]; Group 1 vs 7: 100/25 mg/kg): 0.6686; Hazard Ratio ([1]; Group 1 vs 8: 50/25 mg/kg): 3.433; Median survival ([1]; Group 1 vs 8: 50/25 mg/kg): 45.3; Median survival Ratio ([1]; Group 1 vs 8: 50/25 mg/kg): 0.5011; MTV (n) Day 59 [1, 3]: 454 mm^3; Median TTE [1, 3]: 40.5 days; T-C [1, 3]: 17.8 days; antitumor activity (logrank analysis) [1, 3]: produced significant antitumor activity; % TGD ([1]; Group 2: MPT0E028 25 mg/kg po qd to endpoint, 25 mg/kg): 78%; Logrank Significance ([1]; Group 2: MPT0E028 25 mg/kg po qd to endpoint, compared to Group 1): * (* = P < 0.05); Day of Max % BW Loss ([1]; mouse, in vivo, po, 25 mg/kg): 5 days; Max % BW Loss ([1]; mouse, in vivo, po, 25 mg/kg): −7.7%; No. of NTR ([1]; mouse, in vivo, po, 25 mg/kg): 0; No. of TR ([1]; mouse, in vivo, po, 25 mg/kg): 0
O=C(Nc1ccccn1)c1ccc(CNC2=C(Cl)C(=O)c3ccccc3C2=O)cc1 [MPT0L018, 4-(((3-chloro-1,4-dioxo-1,4-dihydronaphthalen-2-yl)amino)methyl)-N-(pyridin-2-yl)benzamide] | 10 to 30 µM | 10 to 30 µM | 10 to 30 µM | 10 to 30 µM | 
O=C(Nc1cccnc1)c1ccc(CNC2=C(Cl)C(=O)c3ccccc3C2=O)cc1 [MPT0L055, 4-(((3-chloro-1,4-dioxo-1,4-dihydronaphthalen-2-yl)amino)methyl)-N-(pyridin-3-yl)benzamide] | 10 to 30 µM | 10 to 30 µM | 10 to 30 µM | 10 to 30 µM | 
O=C(Nc1cnccn1)c1ccc(CNC2=C(Cl)C(=O)c3ccccc3C2=O)cc1 [MPT0L076, 4-(((3-chloro-1,4-dioxo-1,4-dihydronaphthalen-2-yl)amino)methyl)-N-(pyrazin-2-yl)benzamide] | 5.52 ± 0.66 µM | 7.27 ± 2.98 µM | 8.77 ± 0.9 µM | 9.19 ± 0.4 µM | 
O=C(Nc1ccc(F)cc1)c1ccc(CNC2=C(Cl)C(=O)c3ccccc3C2=O)cc1 [MPT0L082] | 10 to 30 µM | 10 to 30 µM | 10 to 30 µM | 10 to 30 µM | 
O=C(Nc1ccccc1)c1ccc(CNC2=C(Cl)C(=O)c3ccccc3C2=O)cc1 [MPT0L083, 4-(((3-chloro-1,4-dioxo-1,4-dihydronaphthalen-2-yl)amino)methyl)-N-phenylbenzamide] | 10 to 30 µM | 10 to 30 µM | 10 to 30 µM | 10 to 30 µM | 
O=C(Nc1nccs1)c1ccc(CNC2=C(Cl)C(=O)c3ccccc3C2=O)cc1 [MPT0L085, 4-(((3-chloro-1,4-dioxo-1,4-dihydronaphthalen-2-yl)amino)methyl)-N-(thiazol-2-yl)benzamide] | 10 to 30 µM | 8.53 ± 0.55 µM | 10 to 30 µM | 10 to 30 µM | 
O=C(Nc1nc2ccccc2[nH]1)c1ccc(CNC2=C(Cl)C(=O)c3ccccc3C2=O)cc1 [MPT0L086, N-(1H-benzo[d]imidazol-2-yl)-4-(((3-chloro-1,4-dioxo-1,4-dihydronaphthalen-2-yl)amino)methyl)benzamide] | 10 to 30 µM | 10 to 30 µM | 10 to 30 µM | 8.88 ± 1.04 µM | 
O=C(Nc1ccc2[nH]cnc2c1)c1ccc(CNC2=C(Cl)C(=O)c3ccccc3C2=O)cc1 [MPT0L093, N-(1H-benzo[d]imidazol-5-yl)-4-((3-chloro-1,4-dioxo-1,4-dihydronaphthalen-2-ylamino)methyl)benzamide] | 10 to 30 µM | 10 to 30 µM | 10 to 30 µM | 10 to 30 µM | 
Nc1ccn(C(=O)c2ccc(CNC3=C(Cl)C(=O)c4ccccc4C3=O)cc2)n1 [MPT0L094, 2-(4-(3-amino-1H-pyrazole-1-carbonyl)benzylamino)-3-chloronaphthalene-1,4-dione] | 10 to 30 µM |  | 10 to 30 µM | 10 to 30 µM | HL-60 IC50 (μM) Mean ± S.E. (HL-60): 110~30 μM
O=C(Nc1ccc2[nH]ncc2c1)c1ccc(CNC2=C(Cl)C(=O)c3ccccc3C2=O)cc1 [MPT0L097, 4-((3-chloro-1,4-dioxo-1,4-dihydronaphthalen-2-ylamino)methyl)-N-(1H-indazol-5-yl)benzamide] | 10 to 30 µM | 10 to 30 µM | 10 to 30 µM | 10 to 30 µM | 
